# Experimental data as given in patent US20100267561A1, “HERBICIDAL PYRIDAZINONE DERIVATIVES” (priority 2007, published 2010).
# Key:
# Type in all cases: in vivo
# [1] = system: wheat (Triticum aestivum); test: Test A pre-/postemergence plant response
# Procedure, shortened: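 Greenhouse pot test: loam–sand soil; pre- and postemergence sprays applied same day; post plants 2–10 cm, 1–2 leaves. Readout ~10 d, visual % injury vs untreated (0 = none, 100 = complete control).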
# [2] = system: soybean (Glycine max); test: Test B pre-/postemergence plant response; settings: for Soybean plant response rating: 8 g ai/ha
# Description: (§1) Seeds of plant species selected from blackgrass (Alopecurus myosuroides), downy bromegrass (Bromus tectorum), green foxtail (Setaria viridis), Italian ryegrass (Lolium multiflorum), wheat (Triticum aestivum), wild oat (Avena fatua), catchweed bedstraw (Galium aparine), bermudagrass (Cynodon dactylon), surinam grass (Brachiaria decumbens), cocklebur (Xanthium strumarium), corn (Zea mays), large crabgrass (Digitaria sanguinalis), woolly cupgrass (Eriochloa villosa), giant foxtail (Setaria faberii), goosegrass (Eleusine indica), johnsongrass (Sorghum halepense), kochia (Kochia scoparia), lambsquarters (Chenopodium album), morningglory (Ipomoea coccinea), eastern black (E.B.) nightshade (Solanum ptycanthum), yellow nutsedge (Cyperus esculentus), pigweed (Amaranthus retroflexus), common ragweed (Ambrosia elation), Russian thistle (Salsola iberica), soybean (Glycine max), common (oilseed) sunflower (Helianthus annuus), and velvetleaf (Abutilon theophrasti) were planted and treated preemergence with test chemicals formulated in a non-phytotoxic solvent mixture which included a surfactant.
# (§2) At the same time, plants selected from these crop and weed species and also winter barley (Hordeum vulgare), canarygrass (Phalaris minor), chickweed (Stellaria media) and windgrass (Apera spica-venti) were treated with postemergence applications of some of the test chemicals formulated in the same manner. Plants ranged in height from 2 to 18 cm (1- to 4-leaf stage) for postemergence treatments.
# (§3) Plant species in the flooded paddy test consisted of rice (Oryza sativa), umbrella sedge (Cyperus difformis), ducksalad (Heteranthera limosa) and barnyardgrass (Echinochloa crus-galli) grown to the 2-leaf stage for testing. At time of treatment, test pots were flooded to 3 cm above the soil surface, treated by application of test compounds directly to the paddy water, and then maintained at that water depth for the duration of the test. Treated plants and controls were maintained in a greenhouse for 13 to 15 days, after which time all species were compared to controls and visually evaluated. Plant response ratings, summarized in Table B, are based on a scale of 0 to 100 where 0 is no effect and 100 is complete control. A dash (-) response means no test result.
# [3] = system: Italian ryegrass (Lolium multiflorum); test: Test B pre-/postemergence plant response; settings: for Ryegrass, Italian plant response rating: 8 g ai/ha
# Description: as §1, §2, §3
# [4] = system: eastern black (E.B.) nightshade (Solanum ptycanthum); test: Test B pre-/postemergence plant response; settings: Preemergence
# Description: as §1, §2, §3
# [5] = system: pigweed (Amaranthus retroflexus); test: Test B pre-/postemergence plant response; settings: for Pigweed plant response rating: 8 g ai/ha
# Description: as §1, §2, §3
# [6] = system: woolly cupgrass (Eriochloa villosa); test: Test B pre-/postemergence plant response; settings: for Cupgrass, Woolly plant response rating: 8 g ai/ha
# Description: as §1, §2, §3
# [7] = system: cocklebur (Xanthium strumarium); test: Test B pre-/postemergence plant response; settings: for Cocklebur plant response rating: 8 g ai/ha
# Description: as §1, §2, §3
# [8] = system: Russian thistle (Salsola iberica); test: Test B pre-/postemergence plant response; settings: Preemergence
# Description: as §1, §2, §3
# [9] = system: kochia (Kochia scoparia); test: Test B pre-/postemergence plant response; settings: for Kochia plant response rating: 8 g ai/ha
# Description: as §1, §2, §3
# [10] = system: goosegrass (Eleusine indica); test: Test B pre-/postemergence plant response; settings: for Goosegrass plant response rating: 8 g ai/ha
# Description: as §1, §2, §3
# [11] = system: common ragweed (Ambrosia elation); test: Test B pre-/postemergence plant response; settings: for Ragweed plant response rating: 8 g ai/ha
# Description: as §1, §2, §3
# [12] = system: yellow nutsedge (Cyperus esculentus); test: Test B pre-/postemergence plant response; settings: for Nutsedge, Yellow plant response rating: 8 g ai/ha
# Description: as §1, §2, §3
# [13] = Postemergence, 16 g ai/ha, scale 0 to 100
# [14] = Postemergence, 31 g ai/ha, scale 0 to 100, 0 no effect, 100 complete control
# [15] = Postemergence, 62 g ai/ha, scale 0 to 100
# [16] = Preemergence, 62 g ai/ha, scale 0 to 100
# [17] = Preemergence, 16 g ai/ha, scale 0 to 100 (0 no effect, 100 complete control)
# [18] = Preemergence, 31 g ai/ha, 0 to 100 scale, 0 no effect, 100 complete control
# [19] = 16 g ai/ha, scale 0 to 100 (0 no effect, 100 complete control)
structure (smiles),measurement,setting,value
CCc1cc(-c2ccc(C(F)(F)F)cc2)nn1-c1c(OS(C)(=O)=O)cnn(C)c1=O [Compound 19],"Plant response rating, Wheat","[1]; Postemergence, 125 g ai/ha, 0 to 100 scale, 0 no effect, 100 complete control",60
same,"Plant response rating, Wheat","[1]; Postemergence, 500 g ai/ha, 0 to 100 scale, 0 no effect, 100 complete control",90
same,"Plant response rating, Wheat","[1]; Preemergence, 125 g ai/ha, 0 to 100 scale (0 no effect, 100 complete control)",90
same,"Plant response rating, Wheat","[1]; Preemergence, 500 g ai/ha, 0 to 100 scale (0 no effect, 100 complete control)",100
same,Soybean plant response rating,"[2]; postemergence, 0-100 scale",0
same,"Plant response rating, Soybean",[2]; [13],0
same,"Plant response rating, Soybean",[2]; [14],0
same,"Plant response rating, Soybean",[2]; [15],0
same,"Plant response rating, Soybean",[2]; [16],0
same,Soybean plant response rating,"[2]; Preemergence, scale 0 to 100",0
same,"Ryegrass, Italian plant response rating","[3]; postemergence, 0-100 scale",80
same,"Plant response rating, Ryegrass, Italian",[3]; [13],98
same,"Plant response rating, Ryegrass, Italian",[3]; [14],100
same,"Plant response rating, Ryegrass, Italian",[3]; [15],100
same,"Plant response rating, Ryegrass, Italian",[3]; [17],90
same,"Plant response rating, Ryegrass, Italian",[3]; [18],100
same,"Plant response rating, Ryegrass, Italian",[3]; [16],100
same,"Ryegrass, Italian plant response rating","[3]; Preemergence, scale 0 to 100",50
same,"Plant response rating, Nightshade, E. B.",[4]; [19],0
same,"Plant response rating, Nightshade, E. B.","[4]; 62 g ai/ha, scale 0 to 100",0
same,"Nightshade, E. B. plant response rating","[4]; 8 g ai/ha, scale 0 to 100",0
same,Pigweed plant response rating,"[5]; postemergence, 0-100 scale",0
same,"Plant response rating, Pigweed",[5]; [13],0
same,"Plant response rating, Pigweed",[5]; [14],0
same,"Plant response rating, Pigweed",[5]; [15],0
same,"Plant response rating, Pigweed",[5]; [17],0
same,"Plant response rating, Pigweed",[5]; [18],0
same,"Plant response rating, Pigweed",[5]; [16],0
same,Pigweed plant response rating,"[5]; Preemergence, scale 0 to 100",0
same,"Cupgrass, Woolly plant response rating","[6]; postemergence, 0-100 scale",90
same,"Plant response rating, Cupgrass, Woolly",[6]; [13],90
same,"Plant response rating, Cupgrass, Woolly",[6]; [14],100
same,"Plant response rating, Cupgrass, Woolly",[6]; [15],100
same,"Plant response rating, Cupgrass, Woolly",[6]; [17],85
same,"Plant response rating, Cupgrass, Woolly",[6]; [18],98
same,"Plant response rating, Cupgrass, Woolly",[6]; [16],100
same,"Cupgrass, Woolly plant response rating","[6]; Preemergence, scale 0 to 100",50
same,Cocklebur plant response rating,"[7]; postemergence, 0-100 scale",0
same,"Plant response rating, Cocklebur",[7]; [13],0
same,"Plant response rating, Cocklebur",[7]; [14],0
same,"Plant response rating, Cocklebur",[7]; [15],0
same,"Plant response rating, Cocklebur",[7]; [17],0
same,"Plant response rating, Cocklebur",[7]; [18],0
same,"Plant response rating, Cocklebur",[7]; [16],0
same,Cocklebur plant response rating,"[7]; Preemergence, scale 0 to 100",0
same,"Plant response rating, Russian Thistle",[8]; [19],0
same,"Plant response rating, Russian Thistle","[8]; 31 g ai/ha, 0 to 100 scale, 0 no effect, 100 complete control",0
same,Russian Thistle plant response rating,"[8]; 8 g ai/ha, scale 0 to 100",0
same,Kochia plant response rating,"[9]; postemergence, 0-100 scale",0
same,"Plant response rating, Kochia",[9]; [13],0
same,"Plant response rating, Kochia",[9]; [14],0
same,"Plant response rating, Kochia",[9]; [15],0
same,"Plant response rating, Kochia",[9]; [17],0
same,"Plant response rating, Kochia",[9]; [16],0
same,Kochia plant response rating,"[9]; Preemergence, scale 0 to 100",0
same,Goosegrass plant response rating,"[10]; postemergence, 0-100 scale",50
same,"Plant response rating, Goosegrass",[10]; [13],80
same,"Plant response rating, Goosegrass",[10]; [14],80
same,"Plant response rating, Goosegrass",[10]; [15],90
same,"Plant response rating, Goosegrass",[10]; [17],75
same,"Plant response rating, Goosegrass",[10]; [18],100
same,"Plant response rating, Goosegrass",[10]; [16],100
same,Goosegrass plant response rating,"[10]; Preemergence, scale 0 to 100",0
same,Ragweed plant response rating,"[11]; postemergence, 0-100 scale",0
same,"Plant response rating, Ragweed",[11]; [13],0
same,"Plant response rating, Ragweed",[11]; [14],0
same,"Plant response rating, Ragweed",[11]; [15],0
same,"Plant response rating, Ragweed",[11]; [17],0
same,"Plant response rating, Ragweed",[11]; [18],0
same,"Plant response rating, Ragweed",[11]; [16],0
same,Ragweed plant response rating,"[11]; Preemergence, scale 0 to 100",0
same,"Nutsedge, Yellow plant response rating","[12]; postemergence, 0-100 scale",0
same,"Plant response rating, Nutsedge, Yellow",[12]; [13],0
same,"Plant response rating, Nutsedge, Yellow",[12]; [14],0
same,"Plant response rating, Nutsedge, Yellow",[12]; [15],30
same,"Plant response rating, Nutsedge, Yellow",[12]; [17],0
same,"Plant response rating, Nutsedge, Yellow",[12]; [18],0
same,"Plant response rating, Nutsedge, Yellow",[12]; [16],0
same,"Nutsedge, Yellow plant response rating","[12]; Preemergence, scale 0 to 100",0
